ChEMBL document CHEMBL1150788, “In vitro susceptibility of Sporothrix schenckii to six antifungal agents determined using three different methods” (2007)
In brackets after ≈: the same amount, converted by molar mass.

How the values were obtained:
Type in all cases: functional
Candida parapsilosis = experiment: Antifungal activity against Candida parapsilosis ATCC 22019 […] after 72 hrs by modified NCCLS M38-A method; conditions: Lodderomyces parapsilosis, ATCC 22019, 72 h
Sporothrix schenckii [1] = experiment: Antifungal activity against Sporothrix schenckii PJRC002 isolate from cutaneous-lymphatic sporotrichosis patient after 72 hrs by Sensititre YeastOne method
Sporothrix schenckii [2] = experiment: Antifungal activity against Sporothrix schenckii P30915 isolate from cutaneous-lymphatic sporotrichosis patient after 72 hrs by ATB Fungus 2 method
Sporothrix schenckii [3] = experiment: Antifungal activity against Sporothrix schenckii P24223 isolate from cutaneous-lymphatic sporotrichosis patient after 72 hrs by Sensititre YeastOne method
Sporothrix schenckii [4] = experiment: Antifungal activity against Sporothrix schenckii P14954 isolate from cutaneous-lymphatic sporotrichosis patient after 72 hrs by modified NCCLS M38-A method
Sporothrix schenckii [5] = experiment: Antifungal activity against Sporothrix schenckii P3287 isolate from cutaneous-lymphatic sporotrichosis patient after 72 hrs by Sensititre YeastOne method
Sporothrix schenckii [6] = experiment: Antifungal activity against Sporothrix schenckii P25013 isolate from cutaneous-lymphatic sporotrichosis patient after 72 hrs by ATB Fungus 2 method
Sporothrix schenckii [7] = experiment: Antifungal activity against Sporothrix schenckii MRSS4 isolate from cutaneous-lymphatic sporotrichosis patient after 72 hrs by Sensititre YeastOne method
Sporothrix schenckii [8] = experiment: Antifungal activity against Sporothrix schenckii PSSA81 isolate from cutaneous-lymphatic sporotrichosis patient after 72 hrs by Sensititre YeastOne method
Sporothrix schenckii [9] = experiment: Antifungal activity against Sporothrix schenckii P26187 isolate from cutaneous-lymphatic sporotrichosis patient after 72 hrs by modified NCCLS M38-A method
Sporothrix schenckii [10] = experiment: Antifungal activity against Sporothrix schenckii SSA29 isolate from cutaneous-lymphatic sporotrichosis patient after 72 hrs by ATB Fungus 2 method
Sporothrix schenckii [11] = experiment: Antifungal activity against Sporothrix schenckii MRSS4 isolate from cutaneous-lymphatic sporotrichosis patient after 72 hrs by ATB Fungus 2 method
Sporothrix schenckii [12] = experiment: Antifungal activity against Sporothrix schenckii P30019 isolate from cutaneous-lymphatic sporotrichosis patient after 72 hrs by Sensititre YeastOne method
Sporothrix schenckii [13] = experiment: Antifungal activity against Sporothrix schenckii P30915 isolate from cutaneous-lymphatic sporotrichosis patient after 72 hrs by modified NCCLS M38-A method
Sporothrix schenckii [14] = experiment: Antifungal activity against Sporothrix schenckii P26187 isolate from cutaneous-lymphatic sporotrichosis patient after 72 hrs by ATB Fungus 2 method
Pichia kudriavzevii = experiment: Antifungal activity against Candida krusei ATCC 6258 […] after 72 hrs by Sensititre YeastOne method; conditions: ATCC 6258, 72 h
Sporothrix schenckii [15] = experiment: Antifungal activity against Sporothrix schenckii PSCC1 isolate from cutaneous-lymphatic sporotrichosis patient after 72 hrs by modified NCCLS M38-A method
Sporothrix schenckii [16] = experiment: Antifungal activity against Sporothrix schenckii P14036 isolate from cutaneous-lymphatic sporotrichosis patient after 72 hrs by Sensititre YeastOne method
Sporothrix schenckii [17] = experiment: Antifungal activity against Sporothrix schenckii P14954 isolate from cutaneous-lymphatic sporotrichosis patient after 72 hrs by Sensititre YeastOne method
Sporothrix schenckii [18] = experiment: Antifungal activity against Sporothrix schenckii P10012 isolate from cutaneous-lymphatic sporotrichosis patient after 72 hrs by Sensititre YeastOne method
Sporothrix schenckii [19] = experiment: Antifungal activity against Sporothrix schenckii P14036 isolate from cutaneous-lymphatic sporotrichosis patient after 72 hrs by modified NCCLS M38-A method
Sporothrix schenckii [20] = experiment: Antifungal activity against Sporothrix schenckii P24223 isolate from cutaneous-lymphatic sporotrichosis patient after 72 hrs by ATB Fungus 2 method
Sporothrix schenckii [21] = experiment: Antifungal activity against Sporothrix schenckii PJRC002 isolate from cutaneous-lymphatic sporotrichosis patient after 72 hrs by ATB Fungus 2 method
Sporothrix schenckii [22] = experiment: Antifungal activity against Sporothrix schenckii P0019 isolate from cutaneous-lymphatic sporotrichosis patient after 72 hrs by modified NCCLS M38-A method
Sporothrix schenckii [23] = experiment: Antifungal activity against Sporothrix schenckii P20825 isolate from cutaneous-lymphatic sporotrichosis patient after 72 hrs by Sensititre YeastOne method
Sporothrix schenckii [24] = experiment: Antifungal activity against Sporothrix schenckii P3287 isolate from cutaneous-lymphatic sporotrichosis patient after 72 hrs by modified NCCLS M38-A method
Sporothrix schenckii [25] = experiment: Antifungal activity against Sporothrix schenckii PGAC0016 isolate from cutaneous-lymphatic sporotrichosis patient after 72 hrs by ATB Fungus 2 method
Sporothrix schenckii [26] = experiment: Antifungal activity against Sporothrix schenckii P24255 isolate from cutaneous-lymphatic sporotrichosis patient after 72 hrs by Sensititre YeastOne method
Sporothrix schenckii [27] = experiment: Antifungal activity against Sporothrix schenckii P14954 isolate from cutaneous-lymphatic sporotrichosis patient after 72 hrs by ATB Fungus 2 method
Sporothrix schenckii [28] = experiment: Antifungal activity against Sporothrix schenckii P30915 isolate from cutaneous-lymphatic sporotrichosis patient after 72 hrs by Sensititre YeastOne method
Sporothrix schenckii [29] = experiment: Antifungal activity against Sporothrix schenckii P25013 isolate from cutaneous-lymphatic sporotrichosis patient after 72 hrs by modified NCCLS M38-A method
Sporothrix schenckii [30] = experiment: Antifungal activity against Sporothrix schenckii P1621 isolate from cutaneous-lymphatic sporotrichosis patient after 72 hrs by modified NCCLS M38-A method
Sporothrix schenckii [31] = experiment: Antifungal activity against Sporothrix schenckii MRSS4 isolate from cutaneous-lymphatic sporotrichosis patient after 72 hrs by modified NCCLS M38-A method
Sporothrix schenckii [32] = experiment: Antifungal activity against Sporothrix schenckii P25013 isolate from cutaneous-lymphatic sporotrichosis patient after 72 hrs by Sensititre YeastOne method
Sporothrix schenckii [33] = experiment: Antifungal activity against Sporothrix schenckii P24255 isolate from cutaneous-lymphatic sporotrichosis patient after 72 hrs by ATB Fungus 2 method
Sporothrix schenckii [34] = experiment: Antifungal activity against Sporothrix schenckii isolate from cutaneous-lymphatic sporotrichosis patient after 72 hrs by modified NCCLS M38-A method
Sporothrix schenckii [35] = experiment: Antifungal activity against Sporothrix schenckii PSSA81 isolate from cutaneous-lymphatic sporotrichosis patient after 72 hrs by modified NCCLS M38-A method
Sporothrix schenckii [36] = experiment: Antifungal activity against Sporothrix schenckii PSCC1 isolate from cutaneous-lymphatic sporotrichosis patient after 72 hrs by ATB Fungus 2 method
Sporothrix schenckii [37] = experiment: Antifungal activity against Sporothrix schenckii P24223 isolate from cutaneous-lymphatic sporotrichosis patient after 72 hrs by modified NCCLS M38-A method
Sporothrix schenckii [38] = experiment: Antifungal activity against Sporothrix schenckii P3287 isolate from cutaneous-lymphatic sporotrichosis patient after 72 hrs by ATB Fungus 2 method
Sporothrix schenckii [39] = experiment: Antifungal activity against Sporothrix schenckii P30019 isolate from cutaneous-lymphatic sporotrichosis patient after 72 hrs by ATB Fungus 2 method
Sporothrix schenckii [40] = experiment: Antifungal activity against Sporothrix schenckii PGAC0016 isolate from cutaneous-lymphatic sporotrichosis patient after 72 hrs by modified NCCLS M38-A method
Sporothrix schenckii [41] = experiment: Antifungal activity against Sporothrix schenckii P1621 isolate from cutaneous-lymphatic sporotrichosis patient after 72 hrs by Sensititre YeastOne method
Sporothrix schenckii [42] = experiment: Antifungal activity against Sporothrix schenckii P1621 isolate from cutaneous-lymphatic sporotrichosis patient after 72 hrs by ATB Fungus 2 method
Sporothrix schenckii [43] = experiment: Antifungal activity against Sporothrix schenckii isolate from cutaneous-lymphatic sporotrichosis patient after 72 hrs by ATB Fungus 2 method

OC(Cn1cncn1)(Cn1cncn1)c1ccc(F)cc1F [FLUCONAZOLE]
MIC (Candida parapsilosis): 1 µg/mL (≈ 3.27 µM)
MIC (Sporothrix schenckii [1]): > 256 µg/mL
MIC (Sporothrix schenckii [2]): > 128 µg/mL
MIC (Sporothrix schenckii [3]): > 256 µg/mL
MIC (Sporothrix schenckii [4]): > 64 µg/mL
MIC (Sporothrix schenckii [5]): > 256 µg/mL
MIC (Sporothrix schenckii [6]): > 128 µg/mL
MIC (Sporothrix schenckii [7]): > 256 µg/mL
MIC (Sporothrix schenckii [8]): 128 µg/mL (≈ 418 µM)
MIC (Sporothrix schenckii [9]): > 64 µg/mL
MIC (Sporothrix schenckii [10]): > 128 µg/mL
MIC (Sporothrix schenckii [11]): > 128 µg/mL
MIC (Sporothrix schenckii [12]): > 128 µg/mL
MIC (Sporothrix schenckii [13]): > 64 µg/mL
MIC (Sporothrix schenckii [14]): > 128 µg/mL
MIC (Pichia kudriavzevii): 64 µg/mL (≈ 209 µM)
MIC (Sporothrix schenckii [15]): > 64 µg/mL
MIC (Sporothrix schenckii [16]): > 256 µg/mL
MIC (Sporothrix schenckii [17]): > 256 µg/mL
MIC (Sporothrix schenckii [18]): > 256 µg/mL
MIC (Sporothrix schenckii [19]): > 128 µg/mL
MIC (Sporothrix schenckii [20]): > 128 µg/mL
MIC (Sporothrix schenckii [21]): > 256 µg/mL
MIC (Sporothrix schenckii [22]): > 64 µg/mL
MIC (Sporothrix schenckii [23]): 256 µg/mL (≈ 836 µM)
MIC (Sporothrix schenckii [24]): > 64 µg/mL
MIC (Sporothrix schenckii [25]): > 128 µg/mL
MIC (Sporothrix schenckii [26]): > 256 µg/mL
MIC (Sporothrix schenckii [27]): > 128 µg/mL
MIC (Sporothrix schenckii [28]): > 256 µg/mL
MIC (Sporothrix schenckii [29]): > 64 µg/mL
MIC (Sporothrix schenckii [30]): > 64 µg/mL
MIC (Sporothrix schenckii [31]): > 64 µg/mL
MIC (Sporothrix schenckii [32]): 128 µg/mL (≈ 418 µM)
MIC (Sporothrix schenckii [33]): 128 µg/mL (≈ 418 µM)
MIC50 (Sporothrix schenckii [34]): > 64 µg/mL
MIC90 (Sporothrix schenckii [34]): > 64 µg/mL
MIC (Sporothrix schenckii [35]): > 64 µg/mL
MIC (Sporothrix schenckii [36]): > 128 µg/mL
MIC (Sporothrix schenckii [37]): > 64 µg/mL
MIC (Sporothrix schenckii [38]): > 128 µg/mL
MIC (Sporothrix schenckii [39]): > 128 µg/mL
MIC (Sporothrix schenckii [40]): > 64 µg/mL
MIC (Sporothrix schenckii [41]): > 256 µg/mL
MIC (Sporothrix schenckii [42]): > 128 µg/mL
MIC50 (Sporothrix schenckii [43]): > 128 µg/mL
MIC90 (Sporothrix schenckii [43]): > 128 µg/mL
